Laboratory results published in patent publication US11660293B2, “Substituted 2-azabicyclo[3.1.1]heptane and 2-azabicyclo[3.2.1]octane derivatives as orexin receptor antagonists” (Chronos Therapeutics Limited, priority 2017, dated 2023).

Key:
[1] = molecular target: human Orexin type 1 receptors (Homo sapiens (Human), UniProt O43613); assay: Scintillation Proximity Assay (SPA) binding assay, [3H]SB-674042 displacement, CHO-hOX1 membranes; settings: for Ki: Table 1, [3H]SB-674042 2 nM, read-out: OX1 pKi (SPA binding) (converted); for OX1 pKi (SPA binding): Table 2, [3H]SB-674042 2 nM
[2] = Measurement of brain fraction unbound (equilibrium dialysis); assay type: in vitro ADME; settings: pH 7.4, rat brain homogenate, 37° C., read-out: FU brain (%, rat)
Description: Measurement of Brain Fraction Unbound (Equilibrium Dialysis)
Brain fractions unbound were determined using equilibrium dialysis in a 96-well format as described in Kalvass and Maurer, 2002. Brain homogenates were prepared using 2 ml/g CSF surrogate (7.30 g/l NaCl, 186.4 mg/l KCl, 239.9 mg/l MgCl2, 185.2 mg/l CaCl2), and 536.0 mg/l Na2HPO4.7H2O, pH 7.4). Dialysis membranes (12-14-kDA cutoff) obtained from Spectrum Laboratories Inc. (Rancho Dominguez, Calif.) were conditioned in water (HPLC grade) for 60 min, followed by 20 min in 20% ethanol, and 15 min in CSF surrogate.
Assay compound concentrations were 5 μM. Diluted brain homogenate was spiked with the compound of interest, and 150-μl aliquots were loaded into the 96-well equilibrium dialysis apparatus and dialyzed against an equal volume of CSF surrogate. Equilibrium was achieved by incubating the 96-well equilibrium dialysis apparatus in a temperature-controlled incubator at 37° C. for 5 h, using an orbital shaker at 125 rpm. At the end of the incubation period, 50-μl aliquots of brain homogenate and buffer were transferred to a 96-well plate, and the composition in each tube was balanced with control fluid to equalize the brain and buffer volumes. Sample extraction was performed by addition of 400 μl of acetonitrile containing internal standard (rolipram). The samples were then vortex-mixed and centrifuged, and 100 μl of supernatants was transferred into a 96-well plate, diluted with 200 μl of 16% acetonitrile/water, and analyzed by liquid chromatography-tandem mass spectrometry (LC-MS/MS).
The brain unbound fraction (FU brain) was calculated from the ratio of analyte/internal standard peak area ratios determined in buffer versus brain homogenate samples using equation (1), which accounts for the effect of tissue dilution on unbound fraction (Kalvass and Maurer, 2002):
[formula] where D is the dilution factor in brain homogenate and fu-diluted is the measured free fraction of diluted brain tissue. Results

[3] = molecular target: human Orexin type 2 receptors (Homo sapiens (Human), UniProt O43614); assay: Scintillation Proximity Assay (SPA) binding assay, [3H]EMPA displacement, HEK-hOX2 membranes; settings: for Ki: Table 1, [3H]EMPA 2 nM, read-out: OX2 pKi (SPA binding) (converted); for OX2 pKi (SPA binding): Table 2, [3H]EMPA 2 nM
Sequence of human Orexin type 2 receptors (O43614 whole entry): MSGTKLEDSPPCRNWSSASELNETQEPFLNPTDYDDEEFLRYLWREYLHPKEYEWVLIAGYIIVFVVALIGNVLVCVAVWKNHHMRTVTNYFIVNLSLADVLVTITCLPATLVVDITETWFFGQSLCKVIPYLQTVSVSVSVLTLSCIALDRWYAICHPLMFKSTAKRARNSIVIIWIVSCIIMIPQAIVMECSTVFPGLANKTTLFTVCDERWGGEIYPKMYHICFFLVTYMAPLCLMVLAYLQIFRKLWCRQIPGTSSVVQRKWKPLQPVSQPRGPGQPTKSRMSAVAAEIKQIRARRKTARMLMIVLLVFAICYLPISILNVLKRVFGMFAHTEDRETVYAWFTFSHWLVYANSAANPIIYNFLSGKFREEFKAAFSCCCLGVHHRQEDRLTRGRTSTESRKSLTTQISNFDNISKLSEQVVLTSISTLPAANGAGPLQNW

Sequence of human Orexin type 1 receptors (O43613 whole entry): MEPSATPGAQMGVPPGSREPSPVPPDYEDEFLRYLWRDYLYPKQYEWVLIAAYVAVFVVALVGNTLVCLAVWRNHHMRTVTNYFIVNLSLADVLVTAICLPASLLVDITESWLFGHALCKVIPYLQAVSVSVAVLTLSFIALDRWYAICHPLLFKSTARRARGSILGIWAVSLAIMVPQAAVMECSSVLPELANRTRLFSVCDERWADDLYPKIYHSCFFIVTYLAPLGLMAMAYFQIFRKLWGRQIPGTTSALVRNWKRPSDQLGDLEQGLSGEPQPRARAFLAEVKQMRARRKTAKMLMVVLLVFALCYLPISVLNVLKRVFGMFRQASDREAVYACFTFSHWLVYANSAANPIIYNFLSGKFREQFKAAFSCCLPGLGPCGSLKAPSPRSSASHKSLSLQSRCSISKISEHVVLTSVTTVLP

SMILES	Ki [1] [nM]	fraction unbound at 5 h, 5 μM [2]	Ki [3] [nM]	OX1 pKi (SPA binding) [1]	OX2 pKi (SPA binding) [3]
Cc1ccc(-n2nccn2)c(C(=O)N2C3CC(C3)[C@H](C)C2COc2ccc(F)cc2)n1 (single isomer, unassigned) [Example 105, (3S,4S or 3R,4R)-3-[(4-fluorophenoxy)methyl]-4-methyl-2-[6-methyl-3-(2H-1,2,3-triazol-2-yl)pyridine-2-carbonyl]-2-azabicyclo[3.1.1]heptane]	6.31	0.0116	1320		
C[C@@H]1C2CC(C2)N(C(=O)c2cc(F)ccc2-n2nccn2)C1CNc1nc2cccnc2s1 (single isomer, unassigned) [Example 230, N-{[(3R,4S) or (3S,4R)-2-[5-fluoro-2-(2H-1,2,3-triazol-2-yl)benzoyl]-4-methyl-2-azabicyclo[3.1.1]heptan-3-yl]methyl}-[1,3]thiazolo[5,4-b]pyridin-2-amine]		0.0438		8.46	5.32
Cc1ccc(-c2ncccn2)c(C(=O)N2C3CC(C3)[C@@H](C)[C@@H]2COc2ccc(F)cc2)n1 (single isomer, unassigned) [Example 93, (3S,4S or 3R,4R)-3-(4-fluorophenoxymethyl)-4-methyl-2-[6-methyl-3-(pyrimidin-2-yl)pyridine-2-carbonyl]-2-azabicyclo[3.1.]heptane]	1.95	0.0258	407		
Cc1ccc(-n2nccn2)c(C(=O)N2C3CC(C3)[C@@H](C)C2CNc2nc3cccnc3s2)n1 (single isomer, unassigned) [Example 186, N-({(3R,4S) or (3S,4R)-4-methyl-2-[6-methyl-3-(2H-1,2,3-triazol-2-yl)pyridine-2-carbonyl]-2-azabicyclo[3.1.1]heptan-3-yl}methyl)-[1,3]thiazolo[5,4-b]pyridin-2-amine]		0.147		8.42	5.36
C[C@@H]1C2CC(C2)N(C(=O)c2cc(C#N)ccc2-n2nccn2)C1CNc1nc2cccnc2s1 (single isomer, unassigned) [Example 233, 3-[(3R,4S) or (3S,4R)-4-methyl-3-[({[1,3]thiazolo[5,4-b]pyridin-2-yl}amino)methyl]-2-azabicyclo[3.1.1]heptane-2-carbonyl]-4-(2H-1,2,3-triazol-2-yl)benzonitrile]		0.066		8.41	5.11
C[C@@H]1C2CC(C2)N(C(=O)c2cc(Cl)ccc2-n2nccn2)C1CNc1cnc(C(F)(F)F)cn1 (single isomer, unassigned) [Example 205, N-({(3R,4S) or (3S,4R)2-[5-chloro-2-(2H-1,2,3-triazol-2-yl)benozyl]-4-methyl-2-azabicyclo[3.1.1]heptan-3-yl}methyl)-5-(trifluoromethyl)pyrazin-2-amine]		0.0089		8.59	5.34
Cc1nc(C(=O)N2C3CC(C3)[C@H](C)C2COc2ccc(F)cc2)c(-c2ncccn2)s1 (single isomer, unassigned) [Example 115, (3R,4R) or (3S,4S)-3-[(4-fluorophenoxy)methyl]-4-methyl-2-[2-methyl-5-(pyrimidin-2-yl)-1,3-thiazole-4-carbonyl]-2-azabicyclo[3.1.1]heptane]		0.0151		8.5	5.93
Cc1ccc(-n2nccn2)c(C(=O)N2C3CC(C3)[C@@H](C)C2CNc2cnc(C(F)(F)F)cn2)n1 (mixture of isomers) [Example 165, cis-N-({4-methyl-2-[6-methyl-3-(2H-1,2,3-triazol-2-yl)pyridine-2-carbonyl]-2-azabicyclo[3.1.1]heptan-3-yl}methyl)-5-(trifluoromethyl)pyrazin-2-amine]		0.0477		7.63	4.83
